According to patent publication US9504657B2, “Fixed dose combination therapy of Parkinson's disease” (PHARMA TWO B LTD., priority 2012, dated 2016):

Legend:
[1] = tested on: dopamine levels in mouse brain; experiment: In vivo study of drugs in MPTP mice model of Parkinson's disease, striatal dopamine by HPLC; conditions: IP daily 12 days, rasagiline 0.15 mg/Kg, pramipexole 0.12, 0.1, 0.075 mg/Kg, alone or combined
Procedure: Male C57B1/6 mice weighing 20+/−1 g are used (6-10 mice per group). MPTP is administrated by intraperitonealy (IP) injection at a dose of 40 mg/Kg per day for 5 days. Controls are naïve untreated mice injected with saline, and MPTP treated mice injected with saline (no drug treatment). Drugs, rasagiline (0.15 mg/Kg) and pramipexole (3 different doses of 0.12, 0.1 and 0.075 mg/Kg), are given alone or in 3 fixed dose combinations of rasagiline and pramipexole. The fixed dose combinations are composed of rasagiline at a constant dose of 0.15 mg/Kg and pramipexole at 3 different doses as indicated above. Both drugs are dissolved together at saline from their stock solutions to give the final desired combination dose. The application of the drugs is done daily intraperitonealy (IP) injection 30 minutes before MPTP administration. […] The effect of the treatments is assessed by measurement of dopamine and its metabolites (dihydroxyphenylacetic acid and Homovanillic acid) in left and right striatum together taken from the mice at the end of the experiment. […]
Striatum tissue samples are homogenized in ice in 500 μl homogenization buffer (0.1M perchloric acid, 0.02% EDTA and 1% ETOH) using OMNI Tip homogenizing kit of OMNI International (intermediate speed, 3×10 seconds with 5 seconds intervals). […] The supernatants are transferred into fresh tubes and Dopamine content is analyzed by HPLC. […]

[2] = tested on: Parkinson's disease patients; conditions: 1 mg immediate release rasagiline added to pramipexole averaging 1.5 mg per day; cited from earlier work

## C#CCN[C@@H]1CCc2ccccc21 [rasagiline]
[1]
  effect of treatment on Dopamine levels compared to saline: very low
[2]
  combined effect on total UPDRS score, reduction compared to placebo: 2.4 UPDRS points
